PubChem BioAssay (NCI)
Where “and” joins values, the source holds several entries; their conditions need not be identical. Identical values can stand only once.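 Briefly, cells in 96-well plates were exposed to five compound concentrations for 48 h, and endpoints were estimated by linear interpolation. Here, GI50 denotes the concentration required for 50% inhibition of growth. At the TGI there is no net growth.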

Legend:
Assay in all cases: growth of human tumour cells (NCI), 48 h
[1] = test system: BT-549 breast
[2] = test system: IGROV1 ovarian
[3] = test system: KM12 colon
[4] = test system: MALME-3M melanoma
[5] = test system: MDA-MB-231 breast
[6] = test system: MDA-MB-435
[7] = test system: NCI-H23 lung
[8] = test system: NCI-H460 lung
[9] = test system: OVCAR-3 ovarian
[10] = test system: U251 CNS

Row | SMILES | TGI [1] | TGI [2] | TGI [3] | TGI [4] | TGI [5] | TGI [6] | TGI [7] | TGI [8] | TGI [9] | TGI [10] | GI50 [1] | GI50 [2] | GI50 [3] | GI50 [4] | GI50 [5] | GI50 [6] | GI50 [7] | GI50 [8] | GI50 [9] | GI50 [10]
1 | COc1ccccc1/C=C/c1cnccn1 | > 10 µM | > 10 µM | > 10 µM | > 10 µM | > 10 µM | > 10 µM | > 10 µM | > 10 µM | > 10 µM | > 10 µM |  |  |  |  |  |  |  |  |  | 
2 | O=C(Nc1cccc(Cl)c1)c1cc2ccccc2cc1O | 7.66 µM and 9.29 µM | > 100 µM | > 100 µM | 21.9 µM | > 100 µM and 15.4 µM | > 100 µM |  | > 100 µM | > 100 µM | 19.6 µM and 8.44 µM | 2.42 µM and 1.84 µM | 2.71 µM and 2.06 µM | 3.17 µM and 2.71 µM | 0.71 µM | 4.65 µM and 2.37 µM | 2.38 µM and 2.02 µM | 1.76 µM and 1.03 µM | 2.47 µM and 2.48 µM | 1.43 µM | 1.74 µM
3 | CC(C)c1ccccc1S(=O)c1ccccc1C(C)(C)O (centres undefined) | > 100 µM | > 100 µM | > 100 µM | > 100 µM | > 100 µM | > 100 µM | > 100 µM | > 100 µM | > 100 µM | 39.1 µM |  |  |  |  |  |  |  |  |  | 
4 | N#CC1(C2SCCS2=O)C2=C(C(=O)c3ccccc3C2=O)N2CCCC21 (centres undefined) | 4.3 µM | 5.76 µM | 13.1 µM | 1.27 µM | 9.21 µM | 1.3 µM | 3.51 µM | 11.8 µM | 2.04 µM | 11.3 µM |  |  |  |  |  |  |  |  |  | 
5 | Cc1c[n+](Cc2ccc3ccccc3c2)cn1Cc1ccc2ccccc2c1 | 3.12 µM | 3.75 µM | 3.1 µM | 3.02 µM | 3.24 µM | 3.03 µM | 3.97 µM | 3.65 µM | 2.28 µM | 3.07 µM | 1.56 µM | 1.46 µM | 1.65 µM | 1.29 µM | 1.54 µM | 1.28 µM | 1.49 µM | 1.72 µM | 1.04 µM | 1.61 µM
6 | COc1cc(/C=C2\C(=O)Nc3ccc(F)cc32)cc(OC)c1OC | > 100 µM | > 100 µM | > 100 µM | > 100 µM | 36.3 µM | > 100 µM | > 100 µM | > 100 µM | > 100 µM | 49.4 µM | 22.7 µM | 8.44 µM | 26.2 µM | 29.6 µM | 3.16 µM | 5.5 µM | 24 µM | 19.6 µM | 22.8 µM | 13.5 µM
7 | COC(COC(=O)N1CCN(C=O)CC1)C1=C(N2CC2)C(=O)C(C)=C(N2CC2)C1=O (centres undefined) | 1.97 µM | 1.38 µM | 2.79 µM | 1.53 µM | 8.16 µM | 0.976 µM | 0.926 µM | 0.8 µM | 2.52 µM | 2.71 µM |  |  |  |  |  |  |  |  |  | 
8 | O=C(N/N=C\c1cc(Br)ccc1O)c1ccncc1 | 40.8 µM | > 100 µM | > 100 µM | 78.5 µM | > 100 µM | > 100 µM | > 100 µM | > 100 µM | 39.8 µM | 68.8 µM | 2.57 µM | 3.51 µM | 1.97 µM | 5.76 µM | 5.88 µM | 5.36 µM | 3.61 µM | 1.25 µM | 0.435 µM | 1.92 µM
9 | COc1ccc(-n2cc(-c3ccc(Cl)c(Cl)c3)nc2SCc2cccc(C#N)c2)cc1 | > 100 µM | 28.3 µM | > 100 µM | > 100 µM | > 100 µM | > 100 µM | > 100 µM | > 100 µM | > 100 µM | > 100 µM | 21.4 µM | 4.77 µM | > 100 µM | 16.4 µM | 68 µM | 12.5 µM | 39.8 µM | 51.5 µM | 17 µM | 26.8 µM
10 | O=C1/C(=C\c2cccn2Cc2ccccc2)c2ccccc2N1c1c(Cl)cccc1Cl | > 100 µM | > 100 µM | > 53.4 µM | > 100 µM | > 100 µM | > 100 µM | > 100 µM | > 100 µM | > 48.7 µM | > 100 µM | > 100 µM | 0.551 µM | 0.866 µM | 3.22 µM | 5.83 µM | > 100 µM | > 63 µM | 4.43 µM | 1.32 µM | > 100 µM
11 | NC(=O)C(=CNc1nc(-c2ccc(Cl)c(Cl)c2)cs1)C(N)=O | > 100 µM | > 100 µM | > 100 µM | > 100 µM | > 100 µM | > 100 µM | > 100 µM | > 100 µM | > 100 µM | > 100 µM | > 100 µM | 32.6 µM | > 100 µM | > 100 µM | 60.8 µM | 48.2 µM | > 100 µM | 69.7 µM | 41.6 µM | 65 µM
12 | OCCCCC#Cc1ccccc1C#Cc1cccc(O)c1 | 42.1 µM | 33.3 µM | 41.3 µM | 40.8 µM | 26.7 µM | 32.8 µM | 36.1 µM | 40.7 µM | 44.1 µM | 31.3 µM | 16 µM | 16.8 µM | 17.1 µM | 18.9 µM | 12.8 µM | 16.1 µM | 18 µM | 18.5 µM | 20 µM | 15 µM
13 | O=C(O)c1cccc(OCCO)c1 | > 100 µM | > 100 µM | > 100 µM | > 100 µM | > 100 µM | > 100 µM | > 100 µM | > 100 µM | > 100 µM | > 100 µM |  |  |  |  |  |  |  |  |  | 
14 | O=C(Nc1cccc(Cl)c1Cl)c1cccc(NC2=C(Cl)C(=O)N(Cc3ccccc3)C2=O)c1 | 84.5 µM | 59.6 µM | > 100 µM | > 100 µM | > 100 µM | 53.2 µM | > 100 µM | 94.7 µM | 77.4 µM | > 100 µM | 15.7 µM | 11.7 µM | 82.8 µM | > 100 µM | 32.2 µM | 20.4 µM | 41.4 µM | 22.4 µM | 16.5 µM | 46.2 µM
